The values that follow come from PMC9118628, “Synthesis, molecular docking, and cytotoxicity of quinazolinone and dihydroquinazolinone derivatives as cytotoxic agents” (BMC Chemistry, 2022).

In data set [1] the test system is MCF-7 breast cancer cell line. Kind of data set: MTT cytotoxicity assay, MCF-7. In kind it is cell-based. The following applies: Homo sapiens. The protocol:
(§1) The selected compounds 5a–e and 10a–f were evaluated as possible cytotoxic agents against human colon cancer HCT-116 cell line and MCF-7 breast cancer cell line by MTT assay using doxorubicin as the standard drug. […] The IC50 value was calculated from the inhibition rates at the mentioned durations. […] This is because the IC50 values in 72 h with p-value < 0.0001 are less than those in 48 h.
(§2) The human cancer cells MCF-7and HCT-116 as well as Hek-293 as normal cells were purchased from Pastor Institute of Iran. The cells were maintained in RPMI 1640 medium supplemented with 10% heat-inactivated fetal bovine serum (Company: DNAbiotec, Cat number: DB9723), and streptomycin ([…]) and penicillin (100 U/ml) at 37 °C in a humidified atmosphere with 5% CO2 in the air.
(§3) The cytotoxic activities of compounds 5a–e and 10a–f were evaluated against cancerous cell lines. […] The absorbance was read at 570 nm against a test wavelength of 690 nm […]. The inhibition percentage of compounds was calculated as: ODwells treated with DMSO1%–ODwells treated with compounds/ODwells treated with DMSO1%*100 (OD = absorbance). Then, IC50 values were calculated by nonlinear regression analysis.

Data set [2] has as its system human colon cancer HCT-116 cell line. Nature of the data set: MTT cytotoxicity assay, HCT-116. In kind it is cell-based. The protocol:
as §1, §2, §3
A general note: Tetrazolium assays rely on reduction of a dye to a coloured formazan, in cell work by metabolically active cells.

In a further data set the test system is Hek-293 cell lines. Kind of data set: MTT toxicity assessment on normal cells. In kind it is cell-based. The following applies: for toxicity against Hek-293 cell lines (in words): Hek-293 normal cells; for IC50: Homo sapiens, HEK293, Hek-293 normal cells, 72 h, read-out: IC50 (µM) Hek-293 after 72 h. The protocol:
as §2, §3

The next data set relates to PARP10. The note with it: cited from earlier work.
Setting [3] is: MCF7, MCF-7, 48 h, read-out: IC50 (µM) MCF-7 48 h.
Setting [4] is: MCF7, MCF-7, 72 h, read-out: IC50 (µM) MCF-7 72 h.
[5] abbreviates: HCT-116, 48 h, read-out: IC50 (µM) HCT-116 48 h.
The mark [6] stands for this setting: HCT-116, 72 h, read-out: IC50 (µM) HCT-116 72 h.

Like-named read-outs stand apart in the source and are kept apart here.

Take `Cc1ccccc1Nc1nc2ccccc2c(=O)n1-c1ccccc1` [Compound 5a, 2-[(2-Methylphenyl)amino]-3-phenylquinazolin-4(3H)-one]: the melting point – broadly, the temperature, or range, at which the solid turns liquid – lay in the range of 254 to 258 °C. Besides, the IC50 (in general, the concentration that inhibits the measured activity by half) in data set [1] (setting [3]) came to 71.2 µM. Further, in data set [1] (setting [4]), the IC50 was found to be 14.7 µM. Moreover, the half-inhibitory concentration (IC50) in data set [2] (setting [5]) came to 7.15 µM. The IC50 in data set [2] (setting [6]) is 4.87 µM. In addition, in the data set with Hek-293 cell lines, the “toxicity against Hek-293 cell lines (in words)” value (shortened to “toxicity”) is “high toxicity” and the IC50 is 8.71 ± 1.23 µM.

As for `O=c1c2ccccc2nc(Nc2ccccc2)n1CCl` [Compound 5b, 3-(chloromethyl)-2-(phenylamino)quinazolin-4(3H)-one], the melting point was 194 to 197 °C. Besides, the IC50 in data set [1] (setting [3]) amounted to 101 µM. For the same compound, the IC50 in data set [1] (setting [4]) came out at 76.2 µM. For the same compound, the IC50 in data set [2] (setting [5]) worked out at 59.3 µM. Also, in data set [2] (setting [6]), the IC50 was found to be 37.8 µM.

`O=c1c2ccccc2nc(Nc2ccccc2)n1C1CC1` [Compound 5c, 3-cyclopropyl-2-(phenylamino)quinazolin-4(3H)-one]: the melting point was in the range of 141 to 144 °C. The IC50 in data set [1] (setting [3]) came to 74.9 µM. In addition, the concentration for half-maximal inhibition (IC50) in data set [1] (setting [4]) came to 50.4 µM. In data set [2] (setting [5]), the IC50 was 59.2 µM. In addition, the IC50 in data set [2] (setting [6]) was found to be 29.2 µM.

Compound `COc1ccc(-n2c(Nc3ccccc3)nc3ccccc3c2=O)cc1` [Compound 5d, 3-(4-methoxyphenyl)-2-(phenylamino)quinazolin-4(3H)-one] showed a melting point of 256 to 259 °C. Further, the concentration for half-maximal inhibition (IC50) in data set [1] (setting [3]) came out at 28.8 µM. Besides, the half-inhibitory concentration (IC50) in data set [1] (setting [4]) came out at 25 µM. Also, the IC50 in data set [2] (setting [5]) turned out to be 39.2 µM. In addition, the IC50 in data set [2] (setting [6]) is 17.8 µM. For the same compound, in the data set on Hek-293 cell lines, the “toxicity” value is “low toxicity” and the half-maximal inhibitory concentration (IC50) was found to be 68.1 ± 12.3 µM.

`CC(C)n1c(Nc2ccccc2)nc2ccccc2c1=O` [Compound 5e, 3-isopropyl-2-(phenylamino)quinazolin-4(3H)-one] showed a melting point of 143 to 146 °C. The 50% inhibitory concentration (IC50) in data set [1] (setting [3]) stood at 79 µM. Moreover, the IC50 in data set [1] (setting [4]) came out at 42.7 µM. Besides, in data set [2] (setting [5]), the IC50 is 88.7 µM. Further, in data set [2] (setting [6]), the half-inhibitory concentration (IC50) came to 63.3 µM.

`O=C1c2ccccc2NC(c2ccc(OCc3cn(Cc4ccccc4)nn3)cc2)N1Cc1ccccc1` (stereo not drawn) [Compound 10a, 3-benzyl-2-(4-((1-benzyl-1H-1,2,3-triazol-4-yl)methoxy)phenyl)-2,3-dihydroquinazolin-4(1H)-one] displayed a melting point of 65 to 68 °C. For the same compound, in data set [1] (setting [3]), the IC50 was found to be 62.3 µM. Besides, the half-inhibitory concentration (IC50) in data set [1] (setting [4]) is 18.9 µM. For the same compound, the concentration for half-maximal inhibition (IC50) in data set [2] (setting [5]) stood at 88.8 µM. In data set [2] (setting [6]), the concentration for half-maximal inhibition (IC50) was found to be 29 µM.

Compound `O=C1c2ccccc2NC(c2ccc(OCc3cn(Cc4ccc(F)cc4)nn3)cc2)N1Cc1ccccc1` (stereo not drawn) [Compound 10b, 3-benzyl-2-(4-((1-(4-fluorobenzyl)-1H-1,2,3-triazol-4-yl)methoxy)phenyl)-2,3 dihydroquinazolin-4(1H)-one] had a melting point of 83 to 86 °C. Moreover, in data set [1] (setting [3]), the half-maximal inhibitory concentration (IC50) turned out to be 139 µM. Also, the IC50 in data set [1] (setting [4]) came out at 98.5 µM. Also, the IC50 in data set [2] (setting [5]) stood at 184 µM. The IC50 in data set [2] (setting [6]) was 64 µM.

Compound `O=C1c2ccccc2NC(c2ccc(OCc3cn(Cc4ccc(Cl)cc4)nn3)cc2)N1Cc1ccccc1` (stereo not drawn) [Compound 10c, 3-benzyl-2-(4-((1-(4-chlorobenzyl)-1H-1,2,3-triazol-4-yl)methoxy)phenyl)-2,3-dihydroquinazolin-4(1H)-one] had a melting point of 84 to 87 °C. Also, the IC50 in data set [1] (setting [3]) was determined as 52 µM. The IC50 in data set [1] (setting [4]) was determined as 32.3 µM. Also, the IC50 in data set [2] (setting [5]) turned out to be 120 µM. In addition, the half-maximal inhibitory concentration (IC50) in data set [2] (setting [6]) was 61 µM.

Regarding `O=C1c2ccccc2NC(c2ccc(OCc3cn(Cc4ccc(Br)cc4)nn3)cc2)N1Cc1ccccc1` (stereo not drawn) [Compound 10d, 3-benzyl-2-(4-((1-(4-bromobenzyl)-1H-1,2,3-triazol-4-yl)methoxy)phenyl)-2,3-dihydroquinazolin-4(1H)-one], the melting point was 93 to 95 °C. Moreover, the IC50 in data set [1] (setting [3]) turned out to be 44.7 µM. Further, the concentration for half-maximal inhibition (IC50) in data set [1] (setting [4]) stood at 14.8 µM. In data set [2] (setting [5]), the half-maximal inhibitory concentration (IC50) came out at 251 µM. Besides, the IC50 in data set [2] (setting [6]) was determined as 206 µM.

`Cc1ccccc1Cn1cc(COc2ccc(C3Nc4ccccc4C(=O)N3Cc3ccc(F)cc3)cc2)nn1` (stereo not drawn) [Compound 10e, 3-(4-fluorobenzyl)-2-(4-((1-(2-methylbenzyl)-1H-1,2,3-triazol-4-yl)methoxy)phenyl)-2,3-dihydroquinazolin-4(1H)-one] came in with a melting point of 63 to 65 °C. In data set [1] (setting [3]), the 50% inhibitory concentration (IC50) came out at 79.1 µM. Besides, the half-maximal inhibitory concentration (IC50) in data set [1] (setting [4]) was 48.8 µM. Further, the concentration for half-maximal inhibition (IC50) in data set [2] (setting [5]) came to 48.2 µM. In data set [2] (setting [6]), the 50% inhibitory concentration (IC50) was 33.3 µM.

Consider `O=C1c2ccccc2NC(c2ccc(OCc3cn(Cc4ccc(F)cc4)nn3)cc2)N1Cc1ccc(F)cc1` (stereo not drawn) [Compound 10f, 3-(4-fluorobenzyl)-2-(4-((1-(4-fluorobenzyl)-1H-1,2,3-triazol-4-yl)methoxy)phenyl)-2,3-dihydroquinazolin-4(1H)-one], for which the melting point was 69 to 72 °C. The concentration for half-maximal inhibition (IC50) in data set [1] (setting [3]) turned out to be 41.5 µM. In addition, in data set [1] (setting [4]), the half-maximal inhibitory concentration (IC50) was found to be 16.3 µM. In addition, in data set [2] (setting [5]), the IC50 was found to be 40.4 µM. Further, the IC50 in data set [2] (setting [6]) came out at 10.1 µM. Besides, in the data set with Hek-293 cell lines, the “toxicity” value is on record as “low toxicity” and the half-maximal inhibitory concentration (IC50) is 56.1 ± 10.4 µM.

Regarding `CC#Cc1ccc2c(=O)[nH]c(CSc3ccc(C(=O)O)cc3)nc2c1` [Compound F], the IC50 in the data set on PARP10 was 0.2 µM.

Take `CC#Cc1ccc2c(=O)[nH]c(CSc3ncccn3)nc2c1` [Compound G]: the IC50 with PARP10 is 9.3 µM.

Regarding `COc1cccc2c1C(=O)c1c(O)c3c(c(O)c1C2=O)C[C@@](O)(C(=O)CO)C[C@@H]3O[C@H]1C[C@H](N)[C@H](O)[C@H](C)O1` [DOX, doxorubicin, reference compound], the half-maximal inhibitory concentration (IC50) in data set [1] (setting [3]) amounted to 1.33 µM; in data set [1] (setting [4]) it was 1.08 µM; in data set [2] (setting [5]), 1.66 µM; in data set [2] (setting [6]) it was 1.2 µM; in the data set with Hek-293 cell lines it was 0.75 ± 0.09 µM.

Consider `Cc1c(-c2ccnc(C(F)(F)F)c2)ccc2c1CCNC2=O` [H], for which the half-maximal inhibitory concentration (IC50) in the data set with PARP10 is 2.7 µM.
